Measurements: PubChem BioAssay AID1963829 (Molecular Pharmacology Branch, DTP, NCI, 2024)

Test system: 935938-334-R-J1-PDC complex spheroid viability
Assay: Anticancer human tumor 935938-334-R-J1-PDC patient-derived small intestine adenocarcinoma cell line growth inhibition [POLQ]
Details: for IC50: curve of first compound; for viability, T/C: stronger effect = lower value; active means viability on the fitted dose curve at most 10% of control; inactive means the rest
Method: Multicellular complex tumor spheroid response to Polymerase (POL) inhibitors (novobiocin, ART-558, RP6685) in combination with a variety of drugs and investigational agents in selected tumor cell lines
The POL inhibitors (novobiocin, ART-558, and RP6685) were evaluated both individually and in combination with standard of care and investigational anticancer small molecules within a complex spheroid model of solid tumors. . Complex spheroids include a stromal component modeled by human endothelial cells (HUVEC) and fibroblasts modeled by human mesenchymal stem cells (MSCs). The concentration ranges selected for each drug and investigational agent were based upon clinically achievable concentrations if the clinical Cmax of the agent was known.
Compounds. The drugs and investigational agents: novobiocin (NSC847541), ART-558 (NSC835418), RP-6685 (NSC848927), peposertib (NSC802822), ceralasertib (NSC780249), elimusertib (NSC800525), camonsertib (NSC841442), AZD-1390 (NSC803789), olaparib (NSC753686), talazoparib (NSC767125), rucaparib (NSC756644), sotorasib (NSC818433), MRTX-1133 (NSC836407), SN-38 (NSC673596), topotecan (NSC609699), epotoside (NSC141540), doxorubicin (NSC123127), gemcitabine (NSC613327), 5-fluorouracil (NSC19893), paclitaxel (NSC125973), vemurafenib (NSC761431), MSA-2 (NSC828583), SN-011 (NSC837082), adavosertib (NSC754352), prexasertib (NSC758257), carboplatin (NSC241240) and oxaliplatin (NSC266046), were obtained from the National Cancer Institute (NCI) Developmental Therapeutics Program Chemical Repository (21). The FDA-approved anticancer drug set is available from the Developmental Therapeutics Program at https://dtp.cancer.gov/organization/dscb/obtaining/. […] The stock solutions were prepared in dimethyl sulfoxide (DMSO, Sigma-Aldrich, St. Louis, MO, cat. D2650), except for the platinum compounds which were prepared in saline (Quality Biological, Gaithersburg, MD, cat. 114-055-101), at 800-fold the tested concentration and stored at -70 degrees C prior to their use. All drugs and investigational agents were tested over a range starting from a high concentration at or near the clinical Cmax and decreasing in half-log increments. If the clinical Cmax for an agent had not been determined, the highest concentration tested was 10 microM, except for SN-38, which was tested at a high concentration of 1 microM.
Cell Culture. All cells were maintained in an incubator at 37 degrees C and 5% CO2 with 95% humidity. The PDC lines were cultured according to standard operating procedures established by the NCI PDMR (https://pdmr.cancer.gov). Table 3 of the manuscript, lists the cell lines along with the number of the three cell types plated to form the mct-spheroids and media for tumor cell growth. After thawing, all PDC lines, except 997537-175-T-J1-PDC and 415267-285-R-J2-PDC, were cultured in Matrigel-coated flasks prepared with a working solution of 1X Ham's F-12 nutrient mix, without supplementation (Thermo Fisher Scientific, cat. 11765054), 100 U/mL penicillin-streptomycin (Thermo Fisher Scientific, cat. 15140122), and 2.5% Matrigel (Corning Inc., Corning, NY, cat. 354248) for the first three passages. The two PDC lines 997537-175-T-J1-PDC and 415267-285-R-J2-PDC were cultured on uncoated flasks. The 857933-349-R-J2-PDC line was cultured in 6C/Colon 1B media containing advanced DMEM/F-12 (Thermo Fisher Scientific, cat. 12634028), 10 mM HEPES (Thermo Fisher Scientific, cat. 15630080), 1X GlutaMAX supplement (Thermo Fisher Scientific, cat. 35050061), 0.1 mg/mL primocin (InvivoGen, San Diego, CA, cat. ant-pm-2), 10% defined fetal bovine serum, heat inactivated (HyClone Laboratories Inc., Logan, UT, cat. SH30070.03HI), 50% L-WRN conditioned media (ATCC, cat. CRL-3276), 1.25 mM N-Acetyl-L-cysteine (Sigma-Aldrich, cat. A9165), 10 mM nicotinamide (Sigma-Aldrich, cat. N0636), 1X B-27 supplement (Thermo Fisher Scientific, cat. 17504044), 1X N-2 supplement (Thermo Fisher Scientific, cat. […]

[1] = second compound 0.0316 µM, first compound 0.0316 µM
[2] = second compound 0.0316 µM, first compound 0.1 µM
[3] = second compound 0.0316 µM, first compound 0.316 µM
[4] = second compound 0.0316 µM, first compound 1 µM
[5] = second compound 0.0316 µM, first compound 3.16 µM
[6] = second compound 0.0316 µM, first compound 10 µM
[7] = second compound 0.1 µM, first compound 0.0316 µM
[8] = second compound 0.1 µM, first compound 0.1 µM
[9] = second compound 0.1 µM, first compound 0.316 µM
[10] = second compound 0.1 µM, first compound 1 µM
[11] = second compound 0.1 µM, first compound 3.16 µM
[12] = second compound 0.1 µM, first compound 10 µM
[13] = second compound 0.316 µM, first compound 0.0316 µM
[14] = second compound 0.316 µM, first compound 0.1 µM
[15] = second compound 0.316 µM, first compound 0.316 µM
[16] = second compound 0.316 µM, first compound 1 µM
[17] = second compound 0.316 µM, first compound 3.16 µM
[18] = second compound 0.316 µM, first compound 10 µM
[19] = second compound 1 µM, first compound 0.0316 µM
[20] = second compound 1 µM, first compound 0.1 µM
[21] = second compound 1 µM, first compound 0.316 µM
[22] = second compound 1 µM, first compound 1 µM
[23] = second compound 1 µM, first compound 3.16 µM
[24] = second compound 1 µM, first compound 10 µM
[25] = second compound 3.16 µM, first compound 0.0316 µM
[26] = second compound 3.16 µM, first compound 0.1 µM
[27] = second compound 3.16 µM, first compound 0.316 µM
[28] = second compound 3.16 µM, first compound 1 µM
[29] = second compound 3.16 µM, first compound 3.16 µM
[30] = second compound 3.16 µM, first compound 10 µM
[31] = second compound 10 µM, first compound 0.0316 µM
[32] = second compound 10 µM, first compound 0.1 µM
[33] = second compound 10 µM, first compound 0.316 µM
[34] = second compound 10 µM, first compound 1 µM
[35] = second compound 10 µM, first compound 3.16 µM
[36] = second compound 10 µM, first compound 10 µM
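Further: spheroids exposed to drugs for seven days before viability read.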
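Wherever viability, T/C is given: 100% = DMSO vehicle control wells.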

COc1cc2cc(C(=O)CCC(=O)O)sc2cc1OC + Nc1ccc(C#CCN(C(=O)Cc2ncc(C(F)(F)F)cc2C(F)(F)F)c2ccc(F)cc2)nn1
> 10000 nM: IC50 (second compound 0.0316 µM) | IC50 (second compound 0.1 µM) | IC50 (second compound 0.316 µM) | IC50 (second compound 1 µM) | IC50 (second compound 3.16 µM) | IC50 (second compound 10 µM)
inactive: viability, T/C [1] 102% | viability, T/C [2] 101% | viability, T/C [3] 101% | viability, T/C [4] 93.6% | viability, T/C [5] 87.7% | viability, T/C [6] 84.5% | viability, T/C [7] 99% | viability, T/C [8] 92% | viability, T/C [9] 95.5% | viability, T/C [10] 108% | viability, T/C [11] 81.7% | viability, T/C [12] 87% | viability, T/C [13] 108% | viability, T/C [14] 102% | viability, T/C [15] 89.5% | viability, T/C [16] 106% | viability, T/C [17] 113% | viability, T/C [18] 108% | viability, T/C [19] 89.6% | viability, T/C [20] 114% | viability, T/C [21] 78.4% | viability, T/C [22] 81.7% | viability, T/C [23] 110% | viability, T/C [24] 112% | viability, T/C [25] 108% | viability, T/C [26] 90.9% | viability, T/C [27] 84.1% | viability, T/C [28] 105% | viability, T/C [29] 103% | viability, T/C [30] 81.1% | viability, T/C [31] 101% | viability, T/C [32] 95.8% | viability, T/C [33] 101% | viability, T/C [34] 103% | viability, T/C [35] 82% | viability, T/C [36] 74.5%

CC1COCCN1c1cc(C2(O)CC3CCC(C2)O3)c2cnn(-c3ccn[nH]3)c2n1 (stereo unspecified) + COC1C(OC(N)=O)C(O)C(Oc2ccc3c(O)c(NC(=O)c4ccc(O)c(CC=C(C)C)c4)c(=O)oc3c2C)OC1(C)C
207 nM: IC50 (second compound 0.1 µM)
177 nM: IC50 (second compound 3.16 µM)
inactive: viability, T/C [1] 82.5% | viability, T/C [2] 71.2% | viability, T/C [3] 43.8% | viability, T/C [4] 20.1% | viability, T/C [5] 14.7% | viability, T/C [6] 8.68% | viability, T/C [7] 114% | viability, T/C [8] 71.9% | viability, T/C [9] 36.4% | viability, T/C [10] 21.1% | viability, T/C [11] 18.7% | viability, T/C [12] 9.26% | viability, T/C [13] 75.7% | viability, T/C [14] 65.8% | viability, T/C [15] 30.4% | viability, T/C [16] 21.5% | viability, T/C [17] 16.8% | viability, T/C [18] 11.5% | viability, T/C [19] 79.1% | viability, T/C [20] 78.6% | viability, T/C [21] 35.8% | viability, T/C [22] 23.2% | viability, T/C [23] 13.5% | viability, T/C [24] 11.3% | viability, T/C [25] 102% | viability, T/C [26] 63.3% | viability, T/C [27] 36.5% | viability, T/C [28] 20.9% | viability, T/C [29] 15.1% | viability, T/C [30] 10.2% | viability, T/C [31] 88.2% | viability, T/C [32] 48.9% | viability, T/C [33] 27.9% | viability, T/C [34] 16.6% | viability, T/C [35] 15.7% | viability, T/C [36] 8.92%
216 nM: IC50 (second compound 1 µM)
97 nM: IC50 (second compound 10 µM)
168 nM: IC50 (second compound 0.316 µM)
244 nM: IC50 (second compound 0.0316 µM)

CC1COCCN1c1cc(-c2ccnn2C)c2ccnc(-c3ccn[nH]3)c2n1 (stereo unspecified) + COC1C(OC(N)=O)C(O)C(Oc2ccc3c(O)c(NC(=O)c4ccc(O)c(CC=C(C)C)c4)c(=O)oc3c2C)OC1(C)C
80.8 nM: IC50 (second compound 10 µM)
136 nM: IC50 (second compound 0.316 µM)
93 nM: IC50 (second compound 3.16 µM)
72.7 nM: IC50 (second compound 0.0316 µM)
51.2 nM: IC50 (second compound 1 µM)
inactive: viability, T/C [1] 73.1% | viability, T/C [2] 41% | viability, T/C [3] 20.7% | viability, T/C [4] 13.7% | viability, T/C [5] 13.8% | viability, T/C [6] 16.3% | viability, T/C [7] 66.6% | viability, T/C [8] 36% | viability, T/C [9] 20.7% | viability, T/C [10] 14.3% | viability, T/C [11] 16.4% | viability, T/C [12] 19.7% | viability, T/C [13] 73.1% | viability, T/C [14] 61% | viability, T/C [15] 19.9% | viability, T/C [16] 15% | viability, T/C [17] 18% | viability, T/C [18] 21.3% | viability, T/C [19] 59.7% | viability, T/C [20] 36.5% | viability, T/C [21] 18.8% | viability, T/C [22] 14.9% | viability, T/C [23] 14.8% | viability, T/C [24] 20.3% | viability, T/C [25] 78.9% | viability, T/C [26] 48% | viability, T/C [27] 19.4% | viability, T/C [28] 15% | viability, T/C [29] 18.9% | viability, T/C [30] 16.1% | viability, T/C [31] 74.9% | viability, T/C [32] 44.1% | viability, T/C [33] 24.4% | viability, T/C [34] 14.4% | viability, T/C [35] 14.7% | viability, T/C [36] 20.7%
59.2 nM: IC50 (second compound 0.1 µM)
